In patent US7521528B2, “Conformationally constrained parathyroid hormone (PTH) analogs with lactam bridges” (The General Hospital Corporation, priority 2003, dated 2009):
Non-standard residues stand in square brackets, D forms with d. Residues, ends and D or L forms follow the SMILES beside them. hArg = N=C(N)NCCCC[C@H](N)C(=O)O; Aib = CC(C)(N)C(=O)O

Target: T1, P1R-DelNt (Homo sapiens, UniProt Q03431)
T1 construct: expressed in transfected cells
T1 sequence (Q03431 with tags, fused parts or gaps limits assumed): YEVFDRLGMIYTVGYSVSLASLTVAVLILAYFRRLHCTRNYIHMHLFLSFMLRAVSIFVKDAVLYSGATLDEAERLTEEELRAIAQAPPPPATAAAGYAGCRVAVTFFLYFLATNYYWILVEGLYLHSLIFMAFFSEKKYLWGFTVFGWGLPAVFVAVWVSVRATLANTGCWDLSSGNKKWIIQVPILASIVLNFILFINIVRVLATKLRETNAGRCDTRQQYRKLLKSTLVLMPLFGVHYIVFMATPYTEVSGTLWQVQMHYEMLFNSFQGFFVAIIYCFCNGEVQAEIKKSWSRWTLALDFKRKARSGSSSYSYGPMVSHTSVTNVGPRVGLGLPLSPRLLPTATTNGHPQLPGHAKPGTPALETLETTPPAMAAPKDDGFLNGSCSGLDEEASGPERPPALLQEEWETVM
Assay: cAMP stimulation in LdelNt-2 cells
Type: cell-based
Conditions: for EC50: cAMP accumulation; for Emax: percent of maximum response of PTH(1-14)
Procedure: cAMP Stimulation. Stimulation of cells with peptide analogs was performed in 24-well plates. Cells were rinsed with 0.5 mL of binding buffer (50 mM Tris-HCl, 100 mM NaCl, 5 mM KCl, 2 mM CaCl2, 5% heat-inactivated horse serum, 0.5% fetal bovine serum, adjusted to pH 7.5 with HCl) and treated with 200 μL of cAMP assay buffer (Delbecco's modified Eagle's medium containing 2 mM 3-isobutyl-1-methylxanthine, 1 mg/mL bovine serum albumin, 35 mM Hepes-NaOH, pH 7.4) and 100 μL of binding buffer containing varying amounts of peptide analog (final volume=300 μL). The medium was removed after incubation for 30 to 60 minutes at room temperature, and the cells were frozen on dry ice, lysed with 0.5 mL 50 mM HCl, and refrozen ([…]). The cAMP content of the diluted lysate was determined by radioimmunoassay. The EC50 response values were calculated using nonlinear regression (see below).
Data Calculation. Calculations were performed using Microsoft® Excel. Nonlinear regression analyses of binding and cAMP dose-response data were performed using the four-parameter equation: yp=Min+[(Max−Min)/(1+(IC50/x)^slope)]. The Excel Solver function was utilized for parameter optimization, as described previously (Carter, P. H., et al., Endocrinology 140: 4972-4981 (1999); Bowen, W. P., and Jerman, J. C., Trends in Pharmacol. Sci. 16: 413-417 (1995)). Differences between paired data sets were statistically evaluated using a one-tailed Student's t-test, assuming unequal variances for the two sets.
The two-domain hypothesis of the PTH-P1R interaction mechanism predicts that the effects of the substitutions at positions 6 and 10 observed with the above PTH(1-11) analogs involve interactions (direct or indirect) that occur within the juxtamembrane region of the receptor. To test this hypothesis, P1R-DelNt was utilized. P1R-DeNt is a P1R construct that is deleted for most of the N domain yet which retains nearly full capacity to be expressed on the cell surface and to stimulate cAMP formation in response to N-terminal PTH analogs, and an LLC-PK1-derived cell line was herein established, LdelNt-2, which stably expresses P1R-DelNt.

SMILES | fold increase in cAMP formation/accumulation | EC50 | potency relative to [Aib^1,3, Ala^6]PTH(1-14) | Emax | potency weaker than parent [Aib]PTH(1-14)
CC[C@H](C)[C@H](NC(=O)[C@H](CCC(=O)O)NC(=O)C(C)(C)NC(=O)[C@@H](NC(=O)C(C)(C)N)C(C)C)C(=O)N[C@@H](CCC(N)=O)C(=O)N[C@@H](CC(C)C)C(=O)N[C@@H](CCSC)C(=O)N[C@@H](Cc1c[nH]cn1)C(=O)N[C@@H](CCC(N)=O)C(=O)N[C@@H](CCCCNC(=N)N)C(=O)N[C@@H](C)C(=O)N[C@@H](CCCCN)C(=O)N[C@@H](Cc1c[nH]c2ccccc12)C(N)=O [[Aib]PTH(1-14), AibValAibGluIleGlnLeuMetHisGlnHarAlaLysTrp-amide] (H-[Aib]V[Aib]EIQLMHQ[hArg]AKW-NH2) | 50 fold | 6.6 ± 1.1 nM | – | – | –
CC[C@H](C)[C@H](NC(=O)[C@H](CCC(=O)O)NC(=O)C(C)(C)NC(=O)[C@@H](NC(=O)C(C)(C)N)C(C)C)C(=O)N[C@@H](C)C(=O)N[C@@H](CC(C)C)C(=O)N[C@@H](CCSC)C(=O)N[C@@H](Cc1c[nH]cn1)C(=O)N[C@@H](C)C(=O)N[C@@H](CCCCNC(=N)N)C(=O)N[C@@H](C)C(=O)N[C@@H](CCCCN)C(=O)N[C@@H](Cc1c[nH]c2ccccc12)C(N)=O [[Aib^1,3, Ala^6,10]PTH(1-14)] (H-[Aib]V[Aib]EIALMHA[hArg]AKW-NH2) | – | 24 ± 7 nM | six-fold higher | 100 ± 3% | –
CC[C@H](C)[C@H](NC(=O)[C@H](CCC(=O)O)NC(=O)C(C)(C)NC(=O)[C@@H](NC(=O)C(C)(C)N)C(C)C)C(=O)N[C@@H](C)C(=O)N[C@@H](CC(C)C)C(=O)N[C@@H](CCSC)C(=O)N[C@@H](Cc1c[nH]cn1)C(=O)N[C@@H](CCC(N)=O)C(=O)N[C@@H](CCCCNC(=N)N)C(=O)N[C@@H](C)C(=O)N[C@@H](CCCCN)C(=O)N[C@@H](Cc1c[nH]c2ccccc12)C(N)=O [[Aib^1,3, Ala^6]PTH(1-14)] (H-[Aib]V[Aib]EIALMHQ[hArg]AKW-NH2) | – | – | – | 101 ± 4% | 22 fold
CC[C@H](C)[C@H](NC(=O)[C@H](CCC(=O)O)NC(=O)C(C)(C)NC(=O)[C@@H](NC(=O)C(C)(C)N)C(C)C)C(=O)N[C@@H](CCC(N)=O)C(=O)N[C@@H](CC(C)C)C(=O)N[C@@H](CCSC)C(=O)N[C@@H](Cc1c[nH]cn1)C(=O)N[C@@H](C)C(=O)N[C@@H](CCCCNC(=N)N)C(=O)N[C@@H](C)C(=O)N[C@@H](CCCCN)C(=O)N[C@@H](Cc1c[nH]c2ccccc12)C(N)=O [[Aib^1,3, Ala^10]PTH(1-14)] (H-[Aib]V[Aib]EIQLMHA[hArg]AKW-NH2) | – | 81 ± 65 nM | – | 104 ± 7% | 12 fold
